Source: patent US10058534B2, “Benzothiophene derivatives and compositions thereof as selective estrogen receptor degraders” (NOVARTIS AG, priority 2013, dated 2018)

Target: ERα (Homo sapiens (Human), UniProt P03372)
Experiment: ERα degradation (MCF7 cells), in-cell Western
Format: cell-based
Conditions: for % ERα remaining: remaining ERα protein at 10 μM ligand, relative to DMSO control
Method: ERα Degradation (MCF7 Cells)
The column titled MCF7 IC50 reports the inflection point of the inhibition of transcription in MCF7 cells as described above. Percentage ERα remaining reports the remaining ERα protein measured at 10 μM concentration of the ligand as described above. The column ERα IC50 reports the inflection point of the degradation in response to the ligand concentration.

[1] = inflection point of the degradation in response to ligand concentration, MCF7 cells

Sequence of ERα (P03372 whole entry): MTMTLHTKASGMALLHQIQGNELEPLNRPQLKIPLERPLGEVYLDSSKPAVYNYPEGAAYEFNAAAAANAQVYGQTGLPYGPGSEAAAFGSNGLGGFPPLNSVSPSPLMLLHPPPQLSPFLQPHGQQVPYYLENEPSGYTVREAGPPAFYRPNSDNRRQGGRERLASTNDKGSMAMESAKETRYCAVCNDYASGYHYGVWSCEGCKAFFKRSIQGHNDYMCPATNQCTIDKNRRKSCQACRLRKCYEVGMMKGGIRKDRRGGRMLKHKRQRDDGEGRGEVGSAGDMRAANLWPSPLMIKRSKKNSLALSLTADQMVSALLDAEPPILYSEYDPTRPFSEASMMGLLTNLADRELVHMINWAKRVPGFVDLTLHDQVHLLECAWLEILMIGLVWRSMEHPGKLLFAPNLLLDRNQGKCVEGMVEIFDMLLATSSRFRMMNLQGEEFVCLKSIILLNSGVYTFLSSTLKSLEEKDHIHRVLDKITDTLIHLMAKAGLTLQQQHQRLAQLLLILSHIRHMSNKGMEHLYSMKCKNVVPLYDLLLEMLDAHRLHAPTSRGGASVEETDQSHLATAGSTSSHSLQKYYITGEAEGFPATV

Row | Compound | IC50 [1] [nM] | % ERα remaining (MCF7 cells) [%] | ER Percentage remaining (degradation potential, comparison of linker length between phenyl and -C(O)OH) [Percentage] | DC50 (inflection point of the degradation in response to ligand concentration, MCF7 cells, read-out: ERα IC50) [nM]
1 | Cc1ccc(C)c(-c2sc3cc(O)ccc3c2Oc2ccc(/C=C/C(=O)O)cc2)c1 [Example 14, (E)-3-(4-((2-(2,5-dimethylphenyl)-6-hydroxybenzo[b]thiophen-3-yl)oxy)phenyl)-acrylic acid] | 6 | 15 |  | 
2 | Cn1nnnc1/C=C/c1ccc(Oc2c(-c3ccc(F)cc3)sc3cc(O)ccc23)cc1 [Example 52, (E)-2-(4-fluorophenyl)-3-(4-(2-(1-methyl-1H-tetrazol-5-yl)vinyl)phenoxy)benzo [b]thiophen-6-ol] | 223 | 41 |  | 
3 | CCCn1nnnc1/C=C/c1ccc(Oc2c(-c3ccc(F)cc3C)sc3cc(O)ccc23)cc1 [Example 53, (E)-2-(4-fluoro-2-methylphenyl)-3-(4-(2-(1-propyl-1H-tetrazol-5-yl)vinyl)phenoxy) benzo[b]thiophen-6-ol] |  | 43 |  | 
4 | Cc1nnc(/C=C/c2ccc(Oc3c(-c4ccc(F)cc4C)sc4cc(O)ccc34)cc2)o1 [Example 46, (E)-2-(4-fluoro-2-methylphenyl)-3-(4-(2-(5-methyl-1,3,4-oxadiazol-2-yl)vinyl)phenoxy)benzo[b]thiophen-6-ol] | 5 | 41 |  | 
5 | O=C(O)/C=C/c1ccc(Oc2c(-c3ccc(O)cc3)sc3cc(O)ccc23)cc1 [drawing 8] |  |  | 41 | 
6 | CNC(=O)/C=C/c1ccc(Oc2c(-c3ccc(O)c(C)c3)sc3cc(O)ccc23)cc1 [Example 68, (E)-3-(4-((6-hydroxy-2-(4-hydroxy-3-methylphenyl)benzo[b]thiophen-3-yl)oxy)phenyl)-N-methylacrylamide] | 161 | 43 |  | 
7 | O=C(O)CCc1ccc(Oc2c(-c3ccc(O)cc3)sc3cc(O)ccc23)cc1 [Example 1, 3-(4-((6-hydroxy-2-(4-hydroxyphenyl)-benzo[b]thiophen-3-yl)oxy)phenyl)propanoic acid] | 31 | 58 |  | 
8 | CC(C)(C)c1ccc(-c2sc3cc(O)ccc3c2Oc2ccc(/C=C/C(=O)O)cc2)cc1 [Example 22, (E)-3-(4-((2-(4-(tert-butyl)phenyl)-6-hydroxybenzo[b]thiophen-3-yl)oxy)phenyl)-acrylic acid] | 32 | 18 |  | 
9 | COC(=O)/C=C/c1ccc(Oc2c(-c3ccc(O)cc3)sc3c(F)c(O)c(F)cc23)cc1 [Example 37, (E)-methyl 3-(4-((5,7-difluoro-6-hydroxy-2-(4-hydroxyphenyl)-benzo[b]thiophen-3-yl)oxy)phenyl)acrylate] |  | 38 |  | 
10 | CNC(=O)/C=C/c1ccc(Oc2c(-c3ccc(C(F)(F)F)cc3)sc3cc(O)ccc23)cc1 [Example 63, (E)-3-(4-((6-hydroxy-2-(4-(trifluoromethyl)-phenyl)benzo[b]thiophen-3-yl)oxy)phenyl)-N-methylacrylamide] | 24 | 26 |  | 
11 | Cc1nnc(/C=C/c2ccc(Oc3c(-c4ccc(F)cc4C)sc4cc(O)ccc34)cc2)[nH]1 [Example 49, (E)-2-(4-fluoro-2-methylphenyl)-3-(4-(2-(5-methyl-4H-1,2,4-triazol-3-yl)vinyl)phenoxy)benzo[b]thiophen-6-ol] |  | 28 |  | 
12 | Cc1cc(C(F)(F)F)ccc1-c1sc2cc(O)ccc2c1Oc1ccc(/C=C/C(=O)O)cc1 [Example 10, (E)-3-(4-((6-hydroxy-2-(2-methyl-4-(trifluoromethyl)phenyl)benzo[b]thiophen-3-yl)oxy)phenyl)acrylic acid] | 5 | 17 |  | 
13 | C/C(=C\c1ccc(Oc2c(-c3ccc(O)cc3)sc3cc(O)ccc23)cc1)C(=O)O [Example 28, (E)-3-(4-((6-hydroxy-2-(4-hydroxyphenyl)-benzo[b]thiophen-3-yl)oxy)phenyl)-2-methylacrylic acid] |  | 33 |  | 
14 | CN(c1ccc(/C=C/C(=O)O)cc1)c1c(-c2ccc(O)cc2)sc2cc(O)ccc12 [Example 30, (E)-3-(4-((6-hydroxy-2-(4-hydroxyphenyl)benzo[b]thiophen-3-yl)(methyl)amino)phenyl)acrylic acid] |  | 30 |  | 
15 | C/C(=C\C(=O)O)c1ccc(Oc2c(-c3ccc(O)cc3)sc3cc(O)ccc23)cc1 [Example 62, (E)-3-(4-((6-hydroxy-2-(4-hydroxyphenyl)-benzo[b]thiophen-3-yl)oxy)phenyl)but-2-enoic acid] |  | 42 |  | 
16 | CNC(=O)/C=C/c1ccc(Oc2c(-c3ccc(O)cc3)sc3cc(O)ccc23)cc1 [Example 66, (E)-3-(4-((6-hydroxy-2-(4-hydroxyphenyl)benzo[b]thiophen-3-yl)oxy)phenyl)-N-methylacrylamide] | 58 | 40 |  | 
17 | COc1ccc(-c2sc3cc(O)ccc3c2Oc2ccc(/C=C/C(=O)O)cc2)cc1 [Example 26, (E)-3-(4-((6-hydroxy-2-(4-methoxyphenyl)benzo[b]thiophen-3-yl)oxy)phenyl)acrylic acid] | 21 | 18 |  | 

Row | Compound | IC50 [1] [nM] | % ERα remaining (MCF7 cells) [%] | ER Percentage remaining (degradation potential, comparison of linker length between phenyl and -C(O)OH) [Percentage] | DC50 (inflection point of the degradation in response to ligand concentration, MCF7 cells, read-out: ERα IC50) [nM]
18 | O=C(O)/C=C/c1ccc(Oc2c(-c3ccc(O)cc3)sc3cc(O)ccc23)cn1 [Example 29, (E)-3-(5-((6-hydroxy-2-(4-hydroxyphenyl)benzo[b]thiophen-3-yl)oxy)pyridin-2-yl)acrylic acid] |  | 26 |  | 
19 | CCOC(=O)/C=C/c1ccc(Oc2c(-c3ccc(O)cc3)sc3cc(O)ccc23)c(C)c1 [Example 35, (E)-ethyl 3-(4-((6-hydroxy-2-(4-hydroxyphenyl)benzo[b]thiophen-3-yl)oxy)-3-methylphenyl)acrylate] |  | 33 |  | 
20 | CCCc1nnc(/C=C/c2ccc(Oc3c(-c4ccc(F)cc4C)sc4cc(O)ccc34)cc2)o1 [compound 47, (E)-2-(4-fluoro-2-methylphenyl)-3-(4-(2-(5-propyl-1,3,4-oxadiazol-2-yl)vinyl)phenoxy)benzo [b]thiophen-6-ol] |  | 43 |  | 
21 | O=C(O)/C=C/c1ccc(Oc2c(-c3cccc(F)c3)sc3cc(O)ccc23)cc1 [Example 7, (E)-3-(4-((2-(3-fluorophenyl)-6-hydroxybenzo[b]thiophen-3-yl)oxy)phenyl)-acrylic acid] |  | 22 |  | 
22 | Cn1nnc(/C=C/c2ccc(Oc3c(-c4ccc(O)cc4)sc4cc(O)ccc34)cc2)n1 [compound 55, (E)-2-(4-hydroxyphenyl)-3-(4-(2-(2-methyl-2H-tetrazol-5-yl)vinyl)-phenoxy)benzo[b] thiophen-6-ol] | 34 | 33 |  | 
23 | Cc1cc(F)ccc1-c1sc2cc(O)ccc2c1Oc1ccc(/C=C/C(=O)NO)cc1 [Example 32, (E)-3-(4-((2-(4-fluoro-2-methylphenyl)-6-hydroxybenzo [b]thiophen-3-yl)oxy)phenyl)-N-hydroxyacrylamide] |  | 25 |  | 17
24 | COC(=O)/C=C/c1ccc(Oc2c(-c3ccc(F)cc3)sc3cc(O)ccc23)cc1 [Example 36, (E)-methyl 3-(4-((2-(4-fluorophenyl)-6-hydroxybenzo[b]thiophen-3-yl)oxy)phenyl)-acrylate] |  | 28 |  | 
25 | CCc1ccccc1-c1sc2cc(O)ccc2c1Oc1ccc(/C=C/C(=O)O)cc1 [Example 18, (E)-3-(4-((2-(2-ethylphenyl)-6-hydroxybenzo[b]thiophen-3-yl)oxy)phenyl)-acrylic acid] | 1 | 23 |  | 
26 | O=C(O)/C=C/c1ccc(Oc2c(-c3ccc(O)cc3)sc3c(F)c(O)ccc23)cc1 [Example 39, (E)-3-(4-((7-fluoro-6-hydroxy-2-(4-hydroxyphenyl)benzo[b]thiophen-3-yl)oxy)phenyl)acrylic acid] | 70 | 24 |  | 
27 | Cc1cc(F)ccc1-c1sc2cc(O)ccc2c1Oc1ccc(/C=C/c2nnc(C3CC3)o2)cc1 [Example 76, (E)-3-(4-(2-(5-cyclopropyl-1,3,4-oxadiazol-2-yl)vinyl)phenoxy)-2-(4-fluoro-2-methylphenyl)benzo[b] thiophen-6-ol] | 47 | 42 |  | 
28 | NC(=O)/C=C/c1ccc(Oc2c(-c3ccc(O)cc3)sc3cc(O)ccc23)cc1 [Example 64, (E)-3-(4-((6-hydroxy-2-(4-hydroxyphenyl)-benzo[b]thiophen-3-yl)oxy)phenyl)acrylamide] |  | 48 |  | 
29 | Cc1cc(F)ccc1-c1sc2cc(O)ccc2c1Oc1ccc(/C=C/c2nnc(C)n2C)cc1 [Example 106, (E)-3-(4-(2-(4,5-dimethyl-4H-1,2,4-triazol-3-yl)vinyl)phenoxy)-2-(4-fluoro-2-methylphenyl)benzo[b] thiophen-6-ol] |  | 17 |  | 
30 | O=C(O)/C=C/c1ccc(Oc2c(-c3ccc(Cl)cc3)sc3cc(O)ccc23)cc1 [Example 6, (E)-3-(4-((2-(4-chlorophenyl)-6-hydroxybenzo[b]thiophen-3-yl)oxy)phenyl)-acrylic acid] |  | 21 |  | 
31 | O=C(O)/C=C/c1ccc(Oc2c(-c3ccc(OC(F)(F)F)cc3)sc3cc(O)ccc23)cc1 [Example 59, (E)-3-(4-((6-hydroxy-2-(4-(trifluoromethoxy)-phenyl)benzo[b]thiophen-3-yl)oxy)phenyl)-acrylic acid] | 30 | 17 |  | 
32 | CCCn1cncc1/C=C/c1ccc(Oc2c(-c3ccc(O)cc3)sc3cc(O)ccc23)cc1 [Example 75, (E)-2-(4-hydroxyphenyl)-3-(4-(2-(1-propyl-1H-imidazol-5-yl)vinyl)phenoxy)benzo [b]thiophen-6-ol] |  | 41 |  | 
33 | CC(C)c1ccccc1-c1sc2cc(O)ccc2c1Oc1ccc(/C=C/C(=O)O)cc1 [Example 4, (E)-3-(4-((6-hydroxy-2-(2-isopropylphenyl)benzo[b]thiophen-3-yl)oxy)phenyl)acrylic acid] | 0.4 | 13 |  | 
34 | C[C@H](O)c1ccccc1-c1sc2cc(O)ccc2c1Oc1ccc(/C=C/C(=O)O)cc1 [Example 25, (S,E)-3-(4-((6-hydroxy-2-(2-(1-hydroxyethyl)phenyl)benzo[b]thiophen-3-yl)oxy)phenyl)acrylic acid] | 6 | 22 |  | 
